Measurements reported in patent US12365696B2, “Small-molecule focal adhesion kinase (FAK) inhibitors” (DANA-FARBER CANCER INSTITUTE, INC., priority 2019, dated 2025).
Read-outs that look alike come from different tables or passages of the source.

How the values were obtained:
Test in all cases: KINOMEscan
Assay type in all cases: binding
[1] = target: ABL1(F317I)-nonphosphorylated (Homo sapiens (Human), UniProt P00519, F317I); conditions: 10000 nM, read-out: Percent Control
[2] = target: ANKK1 (Homo sapiens (Human), UniProt Q8NFD2); conditions: ANKK1, 10000 nM; read-out: Percent Control
[3] = target: ASK2 (Homo sapiens (Human), UniProt O95382); conditions: ASK2, 10000 nM; read-out: Percent Control
[4] = target: BIKE (Homo sapiens (Human), UniProt Q9NSY1); conditions: 10000 nM, read-out: Percent Control
[5] = target: BRAF (Homo sapiens (Human), UniProt P15056); conditions: 10000 nM, read-out: Percent Control
[6] = target: CDC2L1 (Homo sapiens (Human), UniProt P21127); conditions: CDC2L1, 10000 nM; read-out: Percent Control
[7] = target: CDK4 (Homo sapiens (Human), UniProt P11802); conditions: CDK4, 10000 nM; read-out: Percent Control
[8] = target: CLK2 (Homo sapiens (Human), UniProt P49760); conditions: CLK2, 10000 nM; read-out: Percent Control
[9] = target: CSK (Homo sapiens (Human), UniProt P41240); conditions: 10000 nM, read-out: Percent Control
[10] = target: CSNK2A2 (Homo sapiens (Human), UniProt P19784); conditions: CSNK2A2, 10000 nM; read-out: Percent Control
[11] = target: DAPK3 (Homo sapiens (Human), UniProt O43293); conditions: DAPK3, 10000 nM; read-out: Percent Control
[12] = target: DDR2 (Homo sapiens (Human), UniProt Q16832); conditions: DDR2, 10000 nM; read-out: Percent Control
[13] = target: EGFR(L747-T751del, Sins) (Homo sapiens (Human), UniProt P00533, DEL747-751/INS746S); conditions: 10000 nM, read-out: Percent Control
[14] = target: EPHB4 (Homo sapiens (Human), UniProt P54760); conditions: EPHB4, 10000 nM; read-out: Percent Control
[15] = target: FAK (Homo sapiens (Human), UniProt Q05397); conditions: 10000 nM, read-out: Percent Control
[16] = target: FLT3 (Homo sapiens (Human), UniProt P36888); conditions: FLT3, 10000 nM; read-out: Percent Control
[17] = target: HIPK2 (Homo sapiens (Human), UniProt Q9H2X6); conditions: HIPK2, 10000 nM; read-out: Percent Control
[18] = target: HIPK3 (Homo sapiens (Human), UniProt Q9H422); conditions: HIPK3, 10000 nM; read-out: Percent Control
[19] = target: IRAK1 (Homo sapiens (Human), UniProt P51617); conditions: read-out: Percent Control
[20] = target: LATS1 (Homo sapiens (Human), UniProt O95835); conditions: LATS1, 10000 nM; read-out: Percent Control
[21] = target: LRRK2 (Homo sapiens (Human), UniProt Q5S007); conditions: LRRK2, 10000 nM; read-out: Percent Control
[22] = target: MAST1 (Homo sapiens (Human), UniProt Q9Y2H9); conditions: MAST1, 10000 nM; read-out: Percent Control
[23] = target: MELK (Homo sapiens (Human), UniProt Q14680); conditions: 10000 nM, read-out: Percent Control
[24] = target: MET(Y1235D) (Homo sapiens (Human), UniProt P08581, Y1235D); conditions: 10000 nM, read-out: Percent Control
[25] = target: MST3 (Homo sapiens (Human), UniProt Q9Y6E0); conditions: MST3, 10000 nM; read-out: Percent Control
[26] = target: MYLK2 (Homo sapiens (Human), UniProt Q9H1R3); conditions: MYLK2, 10000 nM; read-out: Percent Control
[27] = target: PIK3CA (Homo sapiens (Human), UniProt P42336); conditions: 10000 nM, read-out: Percent Control
[28] = target: PIK3CA(H1047Y) (Homo sapiens (Human), UniProt P42336, H1047Y); conditions: 10000 nM, read-out: Percent Control
[29] = target: PIM3 (Homo sapiens (Human), UniProt Q86V86); conditions: PIM3, 10000 nM; read-out: Percent Control
[30] = target: PKN1 (Homo sapiens (Human), UniProt Q16512); conditions: PKN1, 10000 nM; read-out: Percent Control
[31] = target: PRKG2 (Homo sapiens (Human), UniProt Q13237); conditions: PRKG2, 10000 nM; read-out: Percent Control
[32] = target: RPS6KA5(Kin.Dom.2-C-terminal) (Homo sapiens (Human), UniProt O75582); conditions: 10000 nM, read-out: Percent Control
[33] = target: SNARK (Homo sapiens (Human), UniProt Q9H093); conditions: 10000 nM, read-out: Percent Control
[34] = target: TXK (Homo sapiens (Human), UniProt P42681); conditions: 10000 nM, read-out: Percent Control

Sequence of EPHB4 (P54760 16-987): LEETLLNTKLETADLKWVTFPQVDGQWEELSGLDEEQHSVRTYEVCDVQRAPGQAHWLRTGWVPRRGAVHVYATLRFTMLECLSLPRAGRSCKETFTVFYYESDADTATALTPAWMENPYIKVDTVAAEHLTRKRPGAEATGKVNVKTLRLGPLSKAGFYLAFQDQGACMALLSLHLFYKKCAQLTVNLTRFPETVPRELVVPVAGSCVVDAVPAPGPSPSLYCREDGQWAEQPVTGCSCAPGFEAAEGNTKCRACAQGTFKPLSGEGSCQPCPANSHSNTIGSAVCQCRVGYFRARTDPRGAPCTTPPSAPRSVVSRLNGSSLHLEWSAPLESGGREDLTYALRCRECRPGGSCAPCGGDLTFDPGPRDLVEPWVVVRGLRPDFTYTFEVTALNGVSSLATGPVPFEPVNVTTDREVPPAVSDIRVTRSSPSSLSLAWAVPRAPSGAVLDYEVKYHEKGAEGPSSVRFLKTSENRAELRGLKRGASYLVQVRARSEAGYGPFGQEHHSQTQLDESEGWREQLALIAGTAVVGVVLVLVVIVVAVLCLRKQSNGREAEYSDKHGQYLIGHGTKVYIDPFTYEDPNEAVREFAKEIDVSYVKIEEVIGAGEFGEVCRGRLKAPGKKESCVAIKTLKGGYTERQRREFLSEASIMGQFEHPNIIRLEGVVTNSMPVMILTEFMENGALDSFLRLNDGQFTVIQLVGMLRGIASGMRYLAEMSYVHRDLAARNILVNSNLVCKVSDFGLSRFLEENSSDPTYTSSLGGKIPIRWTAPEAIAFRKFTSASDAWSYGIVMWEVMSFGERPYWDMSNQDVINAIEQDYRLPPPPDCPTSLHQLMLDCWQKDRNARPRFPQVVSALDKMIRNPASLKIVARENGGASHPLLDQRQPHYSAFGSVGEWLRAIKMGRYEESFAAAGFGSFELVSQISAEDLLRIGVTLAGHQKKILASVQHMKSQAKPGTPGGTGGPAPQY
Sequence of FLT3 (P36888 27-993): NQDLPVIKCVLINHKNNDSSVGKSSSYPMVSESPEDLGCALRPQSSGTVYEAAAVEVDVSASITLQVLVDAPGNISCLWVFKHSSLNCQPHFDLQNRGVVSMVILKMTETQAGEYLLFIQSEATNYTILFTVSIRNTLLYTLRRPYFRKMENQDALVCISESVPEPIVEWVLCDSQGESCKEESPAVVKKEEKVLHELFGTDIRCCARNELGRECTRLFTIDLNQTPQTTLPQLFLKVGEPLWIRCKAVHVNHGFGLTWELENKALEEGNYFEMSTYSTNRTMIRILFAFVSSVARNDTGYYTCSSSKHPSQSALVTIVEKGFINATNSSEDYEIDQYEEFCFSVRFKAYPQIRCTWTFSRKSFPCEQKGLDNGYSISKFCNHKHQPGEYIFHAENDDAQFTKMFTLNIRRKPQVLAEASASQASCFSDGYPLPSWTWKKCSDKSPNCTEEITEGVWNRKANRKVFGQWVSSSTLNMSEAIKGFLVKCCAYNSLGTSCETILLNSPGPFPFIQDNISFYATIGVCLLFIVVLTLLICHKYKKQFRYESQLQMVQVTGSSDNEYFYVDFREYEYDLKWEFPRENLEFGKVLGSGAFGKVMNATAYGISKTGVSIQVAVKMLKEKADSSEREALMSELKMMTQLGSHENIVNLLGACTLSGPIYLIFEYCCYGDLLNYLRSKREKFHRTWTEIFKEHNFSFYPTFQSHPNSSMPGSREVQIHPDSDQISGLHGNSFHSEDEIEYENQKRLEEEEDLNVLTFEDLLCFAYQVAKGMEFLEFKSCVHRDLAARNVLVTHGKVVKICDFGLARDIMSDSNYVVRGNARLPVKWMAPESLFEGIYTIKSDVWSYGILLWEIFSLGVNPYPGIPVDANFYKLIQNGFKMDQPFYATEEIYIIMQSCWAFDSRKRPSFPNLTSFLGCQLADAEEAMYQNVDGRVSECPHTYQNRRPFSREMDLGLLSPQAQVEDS
Sequence of RPS6KA5(Kin.Dom.2-C-terminal) (O75582 426-687): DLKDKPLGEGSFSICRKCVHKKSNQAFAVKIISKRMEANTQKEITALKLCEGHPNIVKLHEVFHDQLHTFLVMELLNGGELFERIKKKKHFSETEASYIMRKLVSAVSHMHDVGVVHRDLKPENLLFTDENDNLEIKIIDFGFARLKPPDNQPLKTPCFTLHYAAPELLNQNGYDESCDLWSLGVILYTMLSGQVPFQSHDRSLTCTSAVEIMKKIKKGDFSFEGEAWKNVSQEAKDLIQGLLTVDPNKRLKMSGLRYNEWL
Sequence of PIK3CA (P42336 whole entry): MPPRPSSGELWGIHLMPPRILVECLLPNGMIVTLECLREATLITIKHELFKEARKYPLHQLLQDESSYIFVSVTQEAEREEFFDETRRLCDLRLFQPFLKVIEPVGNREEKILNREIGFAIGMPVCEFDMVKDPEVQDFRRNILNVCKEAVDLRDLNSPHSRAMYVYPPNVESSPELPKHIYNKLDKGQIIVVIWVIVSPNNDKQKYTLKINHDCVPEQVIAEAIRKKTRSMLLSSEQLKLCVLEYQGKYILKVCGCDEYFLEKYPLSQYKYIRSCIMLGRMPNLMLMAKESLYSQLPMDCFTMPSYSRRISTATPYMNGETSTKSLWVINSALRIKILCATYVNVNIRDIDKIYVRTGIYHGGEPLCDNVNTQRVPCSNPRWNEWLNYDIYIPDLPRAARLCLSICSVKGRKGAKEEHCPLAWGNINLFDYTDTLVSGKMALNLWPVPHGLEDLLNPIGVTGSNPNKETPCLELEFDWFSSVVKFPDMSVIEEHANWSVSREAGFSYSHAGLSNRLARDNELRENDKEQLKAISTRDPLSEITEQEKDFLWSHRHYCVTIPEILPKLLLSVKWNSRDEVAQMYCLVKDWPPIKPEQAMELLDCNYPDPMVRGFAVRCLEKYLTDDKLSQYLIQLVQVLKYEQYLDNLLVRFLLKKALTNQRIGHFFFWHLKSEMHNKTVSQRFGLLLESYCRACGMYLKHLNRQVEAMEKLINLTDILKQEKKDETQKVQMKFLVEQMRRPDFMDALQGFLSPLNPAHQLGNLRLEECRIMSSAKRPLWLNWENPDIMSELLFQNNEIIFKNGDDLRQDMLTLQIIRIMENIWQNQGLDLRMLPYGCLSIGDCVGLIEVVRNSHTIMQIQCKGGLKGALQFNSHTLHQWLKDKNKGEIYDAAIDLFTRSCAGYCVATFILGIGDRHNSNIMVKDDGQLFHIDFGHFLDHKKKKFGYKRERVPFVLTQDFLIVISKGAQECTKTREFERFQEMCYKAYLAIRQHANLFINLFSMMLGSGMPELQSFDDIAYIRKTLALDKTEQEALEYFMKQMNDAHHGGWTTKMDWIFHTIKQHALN
Sequence of CDC2L1 (P21127 whole entry): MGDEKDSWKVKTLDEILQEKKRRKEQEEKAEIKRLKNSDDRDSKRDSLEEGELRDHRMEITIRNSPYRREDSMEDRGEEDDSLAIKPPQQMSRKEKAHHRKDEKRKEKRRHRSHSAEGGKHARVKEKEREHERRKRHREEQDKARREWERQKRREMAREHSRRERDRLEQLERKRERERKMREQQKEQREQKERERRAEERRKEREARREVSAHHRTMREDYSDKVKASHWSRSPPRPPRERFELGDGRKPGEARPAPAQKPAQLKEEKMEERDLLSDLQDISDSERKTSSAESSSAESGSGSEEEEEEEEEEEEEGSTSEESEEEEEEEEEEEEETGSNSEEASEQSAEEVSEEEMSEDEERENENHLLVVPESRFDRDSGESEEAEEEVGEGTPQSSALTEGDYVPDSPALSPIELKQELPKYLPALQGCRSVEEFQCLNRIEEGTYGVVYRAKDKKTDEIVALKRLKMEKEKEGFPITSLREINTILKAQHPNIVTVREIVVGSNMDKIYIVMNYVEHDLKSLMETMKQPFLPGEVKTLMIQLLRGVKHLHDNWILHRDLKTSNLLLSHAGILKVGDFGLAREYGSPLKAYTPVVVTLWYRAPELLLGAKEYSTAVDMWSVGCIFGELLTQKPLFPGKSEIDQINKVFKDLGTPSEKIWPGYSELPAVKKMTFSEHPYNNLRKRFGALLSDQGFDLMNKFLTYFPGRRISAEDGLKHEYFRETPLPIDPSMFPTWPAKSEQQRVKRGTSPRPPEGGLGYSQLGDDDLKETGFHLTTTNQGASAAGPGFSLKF
Sequence of MELK (Q14680 whole entry): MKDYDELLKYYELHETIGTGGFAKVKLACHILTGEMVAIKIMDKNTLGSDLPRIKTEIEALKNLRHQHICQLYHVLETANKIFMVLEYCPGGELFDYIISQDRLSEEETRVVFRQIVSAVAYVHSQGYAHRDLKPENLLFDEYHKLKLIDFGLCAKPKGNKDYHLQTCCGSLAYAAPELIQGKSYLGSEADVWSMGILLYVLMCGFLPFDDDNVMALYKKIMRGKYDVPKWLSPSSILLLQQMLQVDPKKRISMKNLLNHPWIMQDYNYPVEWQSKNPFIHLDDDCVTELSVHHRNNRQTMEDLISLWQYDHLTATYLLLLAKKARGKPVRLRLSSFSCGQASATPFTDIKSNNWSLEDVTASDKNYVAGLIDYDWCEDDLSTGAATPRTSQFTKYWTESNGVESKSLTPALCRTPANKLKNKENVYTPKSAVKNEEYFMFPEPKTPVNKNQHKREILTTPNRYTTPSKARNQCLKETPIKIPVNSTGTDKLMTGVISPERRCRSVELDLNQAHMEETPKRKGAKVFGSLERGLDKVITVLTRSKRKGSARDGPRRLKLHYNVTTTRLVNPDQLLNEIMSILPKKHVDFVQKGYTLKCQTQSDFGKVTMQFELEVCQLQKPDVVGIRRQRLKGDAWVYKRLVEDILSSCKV
Sequence of CSNK2A2 (P19784 whole entry): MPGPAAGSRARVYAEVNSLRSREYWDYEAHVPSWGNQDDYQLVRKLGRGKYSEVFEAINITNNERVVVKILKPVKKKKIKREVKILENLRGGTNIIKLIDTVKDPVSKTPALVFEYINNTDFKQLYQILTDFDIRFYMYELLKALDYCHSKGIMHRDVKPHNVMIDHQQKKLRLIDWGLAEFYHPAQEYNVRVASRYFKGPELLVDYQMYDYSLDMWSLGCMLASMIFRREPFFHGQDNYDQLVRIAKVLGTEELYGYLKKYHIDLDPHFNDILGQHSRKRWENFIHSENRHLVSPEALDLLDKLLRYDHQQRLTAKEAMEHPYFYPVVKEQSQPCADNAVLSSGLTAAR

COc1cc(N2CCC(N3CCN(C)CC3)CC2)ccc1Nc1ncc2c(n1)N(C)c1sc(C)nc1C(=O)N2 [Compound 3, 6-((2-methoxy-4-(4-(4-methylpiperazin-1-yl)piperidin-1-yl)phenyl)amino)-2,4-dimethyl-4,9-dihydro-10H-pyrimido[5,4-b]thiazolo[5,4-e][1,4]diazepin-10-one]
remaining binding at 10 µM [1]: 3.8% | remaining binding at 10 µM [2]: 80% | remaining binding at 10 µM [3]: 100% | remaining binding at 10 µM [4]: 73% | remaining binding at 10 µM [5]: 86% | remaining binding at 10 µM [6]: 74% | remaining binding at 10 µM [7]: 100% | remaining binding at 10 µM [8]: 72% | remaining binding at 10 µM [9]: 85% | remaining binding at 10 µM [10]: 87% | remaining binding at 10 µM [11]: 62% | remaining binding at 10 µM [12]: 100% | remaining binding at 10 µM [13]: 52% | remaining binding at 10 µM [14]: 61% | remaining binding at 10 µM [15]: 0.55% | remaining binding at 10 µM [16]: 100% | remaining binding at 10 µM [17]: 100% | remaining binding at 10 µM [18]: 100% | remaining binding at 10 µM ([19]; IRAK1, 10000 nM): 100% | remaining binding at 10 µM [20]: 77% | remaining binding at 10 µM [21]: 98% | remaining binding at 10 µM [22]: 84% | remaining binding at 10 µM [23]: 99% | remaining binding at 10 µM [24]: 90% | remaining binding at 10 µM [25]: 89% | remaining binding at 10 µM [26]: 84% | remaining binding at 10 µM [27]: 100% | remaining binding at 10 µM [28]: 91% | remaining binding at 10 µM [29]: 70% | remaining binding at 10 µM [30]: 69% | remaining binding at 10 µM [31]: 73% | remaining binding at 10 µM [32]: 72% | remaining binding at 10 µM [33]: 100% | remaining binding at 10 µM [34]: 73%

COc1cc(N2CCC(N3CCN(C)CC3)CC2)ccc1Nc1ncc2c(n1)N(C)c1sc(C)nc1C(=O)N2C [Compound 5, 6-((2-methoxy-4-(4-(4-methylpiperazin-1-yl)piperidin-1-yl)phenyl)amino)-2,4,9-trimethyl-4,9-dihydro-10H-pyrimido[5,4-b]thiazolo[5,4-e][1,4]diazepin-10-one]
remaining binding at 10 µM [1]: 48% | remaining binding at 10 µM [2]: 92% | remaining binding at 10 µM [3]: 100% | remaining binding at 10 µM [4]: 100% | remaining binding at 10 µM [5]: 95% | remaining binding at 10 µM [6]: 100% | remaining binding at 10 µM [7]: 100% | remaining binding at 10 µM [8]: 100% | remaining binding at 10 µM [9]: 100% | remaining binding at 10 µM [10]: 93% | remaining binding at 10 µM [11]: 97% | remaining binding at 10 µM [12]: 100% | remaining binding at 10 µM [13]: 100% | remaining binding at 10 µM [14]: 100% | remaining binding at 10 µM [15]: 0.1% | remaining binding at 10 µM [16]: 99% | remaining binding at 10 µM [17]: 100% | remaining binding at 10 µM [18]: 100% | remaining binding at 10 µM ([19]; IRAKI, 10000 nM): 100% | remaining binding at 10 µM [20]: 50% | remaining binding at 10 µM [21]: 32% | remaining binding at 10 µM [22]: 100% | remaining binding at 10 µM [23]: 88% | remaining binding at 10 µM [24]: 98% | remaining binding at 10 µM [25]: 90% | remaining binding at 10 µM [26]: 97% | remaining binding at 10 µM [27]: 100% | remaining binding at 10 µM [28]: 100% | remaining binding at 10 µM [29]: 100% | remaining binding at 10 µM [30]: 100% | remaining binding at 10 µM [31]: 100% | remaining binding at 10 µM [32]: 63% | remaining binding at 10 µM [33]: 91% | remaining binding at 10 µM [34]: 99%
